We go through 14 compounds from PMC6990439, “Novel Sulfonanilide Inhibitors of SHIP2 Enhance Glucose Uptake into Cultured Myotubes” (ACS Omega, 2020).

What is called IC50 is the concentration needed to halve the response being measured.

Entries after “also recorded” stand apart in the source; their conditions may differ. Like-named read-outs stand apart in the source and are kept apart here. Bounds are passed on as bounds.

In data set [1] the target is T1, recombinant SHIP2 phosphatase domain (Homo sapiens, UniProt O15357).
T1 construct: 100 ng of purified His-tagged recombinant SHIP2 phosphatase domain; His tag
T1 sequence (O15357 419-732 limits assumed): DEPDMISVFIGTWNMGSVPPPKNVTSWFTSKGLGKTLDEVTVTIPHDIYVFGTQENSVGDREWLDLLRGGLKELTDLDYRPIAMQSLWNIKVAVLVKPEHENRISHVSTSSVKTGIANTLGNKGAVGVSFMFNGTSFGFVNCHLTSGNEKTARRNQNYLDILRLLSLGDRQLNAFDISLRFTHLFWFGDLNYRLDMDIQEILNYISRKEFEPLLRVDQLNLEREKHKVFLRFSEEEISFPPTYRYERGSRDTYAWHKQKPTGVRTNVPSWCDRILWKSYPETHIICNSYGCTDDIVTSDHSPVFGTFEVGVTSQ
The data set is described as follows: SHIP2 activity measurement, malachite green phosphate assay. It counts as biochemical. The settings on record: for Emax: read-out: max. inhibition of SHIP2 activity; for IC50: 100 μM PI(3,4,5)P3, four-parameter curve-fit. On the procedure:
For the activity measurements and other biological assays, sulfonanilides 1–12 were dissolved in DMSO and then further diluted into indicated concentrations in assay buffers or media. The capacities of 1–12 to inhibit SHIP2 activity and the IC50 values of 1–12 were measured using the recombinant SHIP2 phosphatase domain and malachite green phosphate assay at the High Throughput Biomedicine Unit (University of Helsinki, Finland). Different concentrations of 1–12 were dispensed to 384-well plates after which 100 ng of purified His-tagged recombinant SHIP2 phosphatase domain in reaction buffer (10 mM HEPES, pH 7.25, 6 mM MgCl2, 0.1% CHAPS, 250 mM sucrose and 0.25 mM EDTA) was added, and the plates were incubated for 15 min at room temperature. The reaction was started by adding 7.5 μL of PI(3,4,5)P3 (Echelon Biosciences, Salt Lake City, UT, USA) diluted in the reaction buffer (the final concentration of PI(3,4,5)P3 per well was 100 μM in the total volume of 15 μL), plates were incubated for 20 min at room temperature, and 15 μL of BIOMOL green reagent (Biomol, Plymouth Meeting, PA, USA) was added to wells. After 25 min incubation at room temperature, the absorbance was measured at 620 nm using a Pherastar FS plate reader (BMG Labtech, Offenburg, Germany) (n = 3 for each condition).
Data are presented as means ± STD or SEM of three or four independent experiments. Statistical analyses were performed using an unpaired, two-tailed Student’s t-test. P-values ≤0.05 were considered statistically significant. IC50-values were calculated using GraphPad Software, Inc., Prism version 6.05 (San Diego, CA, USA) using four-parameter curve-fit.

The next data set deals with L6 myotubes. The data set is described as follows: alamarBlue cell viability (cytotoxicity) assay. It counts as cell-based, Rat. Particulars: for effect on metabolic activity of the cells (alamarBlue): 50 μM; for effect on cell viability: up to 200 μM. On the procedure:
(§1) Rat L6 myoblasts (American Type Culture Collection, Manassas, Virginia, USA) and L6 myoblasts stably overexpressing HA-tagged GLUT4 transporter (L6-GLUT4) were grown in high glucose DMEM (Sigma-Aldrich) supplemented with 10% FBS (Sigma-Aldrich, St. Louis, MO, USA), glutamine (Lonza; Walkersville, MD, USA), and penicillin–streptomycin (Sigma-Aldrich) at +37 °C in a humidified 5% CO2 atmosphere. For differentiation, the FBS concentration in the medium was lowered to 2%.
For cytotoxicity analyses, L6 myoblasts were seeded on 96-well plates, differentiated for 7 days into myotubes, and incubated O/N with 0-300 μM sulfonanilides after which 10 μL of alamarBlue cell viability reagent (ThermoFisher Scientific, Waltham, MA, USA) was added according to the manufacturer instructions. The fluorescence was measured at 544/590 nm ± 20 nm using a Hidex Sense microplate reader (Hidex, Turku, Finland) at 0 and 60 min time points after the addition of the alamarBlue reagent, and the viability of the cells was calculated. The assay was repeated three times (n = 4 for each condition).

Data set [2] concerns Akt phosphorylation in L6 myotubes. Kind of data set: Akt activation (phosphorylation at Ser473) assay, quantitative Western blotting. It counts as cell-based, Rat. The settings on record: 15 min pretreatment then 10 nM insulin for 15 min. The procedure:
as §1
To measure the Akt activation (phosphorylation), L6 myoblasts were differentiated into myotubes for 7 days, serum starved O/N, and treated with 0–50 μM sulfonanilides for 15 min after which 10 nM insulin (Actrapid, Novo Nordisk, Bagsvaerd, Denmark) was added for an additional 15 min. The cells were lysed in NP-40 buffer (1% nonidet P-40, 20 mM Tris–HCl pH 7.4, 150 mM NaCl) supplemented with phosphatase inhibitors (50 mM NaF and 1 mM Na3VO4) and protease inhibitor cocktail (cOmpleteProtease Inhibitor Coctail tablets, Roche Diagnostics GmbH, Mannheim, Germany) and then immunoblotted as in Tolvanen et al.[32] Briefly, samples were separated in 8% polyacrylamide gels and transferred onto PVDF membrane (Immobilon-FL PVDF transfer membrane, Merck Millipore Ltd., Tullagreen, Ireland). […]
A general note: In western blotting, separated proteins are transferred to a membrane and probed.

The subject of data set [3] is L6-GLUT4 myotubes. Kind of data set: Radioactive 2-deoxyglucose glucose uptake assay. It counts as cell-based, Rat. Particulars: 50 μM, 20 h; for increase of glucose uptake with insulin stimulation: 100 nM insulin 15 min, compared to control cells stimulated with insulin; for increase of glucose uptake without insulin: serum starvation, no insulin, vs control. The procedure: as §1
Glucose uptake was measured by a radioactive 2-deoxyglucose assay. L6 myotubes overexpressing GLUT4 glucose transporter were differentiated for 8–9 days. Cells were serum-starved for 20 h supplemented with 50 μM of sulfonanilides 10 or 11, 50 μM of metformin. Thereafter, cells were stimulated or not with 100 nM insulin for 15 min at 37 °C in DMEM (without D-glucose, L-glutamine, phenol red, and sodium pyruvate) (Gibco/Thermo Fisher Scientific). The cells were exposed to 1 μCi/mL 2-deoxy-D-[1, 2-^3H(N)]-glucose (PerkinElmer, Waltham MA, USA) for 5 min at 37 °C. Cells were lysed in 1% Triton X-100 in PBS, and the radioactivity of lysates was measured with a Wallac 1450 Microbeta Trilux liquid scintillator and a luminescense counter (PerkinElmer). Four independent experiments were performed, with 4 technical replicates for each condition.

For data set [4], the system named is L6-GLUT4 myotubes. Kind of data set: On-Cell Western for HA-GLUT4 on the plasma membrane. It counts as cell-based, Rat. Particulars: for increase of GLUT4 on the plasma membrane with insulin stimulation, compared to control cells treated with insulin / increase of GLUT4 on the plasma membrane with insulin stimulation, compared to control cells without insulin / increase of GLUT4 on the plasma membrane without insulin stimulation: 50 μM, 20 h; for increase of GLUT4 on the plasma membrane without insulin stimulation: no insulin, vs control without insulin. On the procedure: as §1
Differentiated L6-GLUT4 myotubes cultured on 96-well plate were treated with sulfonanilides 10 or 11 at 50 μM concentration for 20 h, of which the last 4 h in a serum-free medium. The quiescent cells were stimulated or not with 100 nM insulin for 15 min at 37 °C and fixed with 2% paraformaldehyde on ice for 5 min followed by 20 min at room temperature. The cells were incubated with a primary antibody against HA.11 epitope tag (#901513, BioLegend, San Diego, CA, USA) diluted 1/100 in 50% Odyssey Blocking buffer (LI-COR) in PBS at room temperature for 1 h, followed by incubation with a secondary antibody (IRDye 800CW Donkey anti-Mouse, LI-COR) and the nuclear marker DRAQ-5 (Thermo Fisher Scientific, Rockford, IL, USA) at room temperature for 1 h. The fluorescent signals were detected and quantified with an Odyssey infrared imager (LI-COR). DRAQ-5 was used for normalization. Four independent experiments were performed, resulting in total in 30–34 replicates for each condition.

Data set [5] relates to L6-GLUT4 myotubes. More on the design: method as in PMID 30321069, PMID 1505458. Particulars: cited from earlier work.
The mark [6] stands for this setting: purified His-tagged SHIP2 phosphatase domain.
Where [7] appears, read: purified His-tagged SHIP2 phosphatase domain, 100 μM PI(3,4,5)P3, n = 3.

Regarding `CN(c1ccccc1)S(=O)(=O)c1ccccc1` [Compound 1, N-Methylbenzenesulfonanilide], the Emax in data set [1] amounted to 6 ± 2.8%.

Turning to `Cc1ccc(S(=O)(=O)N(C)c2ccccc2)cc1` [Compound 2, N-Methyl-p-toluenesulfonanilide], the Emax in data set [1] is 10 ± 7.2%.

Regarding `CN(c1ccccc1)S(=O)(=O)c1ccc2ccccc2c1` [Compound 3, N-Methyl-2-naphthalenesulfonanilide], the IC50 in data set [1] (setting [6]) was > 50 µM. Further, in data set [1] (setting [7]), the Emax was determined as 15 ± 1.6%.

Turning to `CN(c1ccccc1)S(=O)(=O)c1ccc(F)c(F)c1F` [Compound 4, N-Methyl-2,3,4-trifluorobenzenesulfonanilide], the IC50 in data set [1] (setting [6]) was > 50 µM. Moreover, the Emax in data set [1] (setting [7]) turned out to be 12 ± 4%.

As to `CN(c1ccccc1)S(=O)(=O)c1ccoc1` [Compound 5, N-Methyl-3-furansulfonanilide], the Emax in data set [1] (setting [7]) turned out to be 3 ± 1.5%.

For the compound `CN(c1ccccc1)S(=O)(=O)c1cccs1` [Compound 6, N-Methyl-2-thiophenesulfonanilide], in data set [1] (setting [6]), the IC50 is > 50 µM. For the same compound, in data set [1] (setting [7]), the Emax was found to be 11 ± 2.2%.

For the compound `Cc1ccc(S(=O)(=O)Nc2ccc(F)cc2Br)cc1` [Compound 7, 2′-Bromo-4′-fluoro-p-toluenesulfonanilide], the IC50 in data set [1] (setting [6]) is > 50 µM. The Emax in data set [1] (setting [7]) was 17 ± 2.1%.

For `O=S(=O)(Nc1ccc(F)cc1Br)c1ccc(F)c(F)c1F` [Compound 8, 2′-Bromo-4′-fluoro-2,3,4-trifluorobenzenesulfonanilide], the Emax in data set [1] (setting [7]) was 10 ± 5.1%.

Consider `O=S(=O)(Nc1ccc(F)cc1Br)c1ccoc1` [Compound 9, 2′-Bromo-4′-fluoro-3-furansulfonanilide], for which the Emax in data set [1] (setting [7]) was 9 ± 3%.

As to `O=S(=O)(Nc1ccc(F)cc1Br)c1cccs1` [Compound 10, 2′-Bromo-4′-fluoro-2-thiophenesulfonanilide], the IC50 in data set [1] (setting [6]) was 41.2 µM. Further, the Emax in data set [1] (setting [7]) is 45 ± 17%. Besides, the “effect on metabolic activity of the cells (alamarBlue)” value in the data set on L6 myotubes is recorded as “slightly enhance the metabolic activity”. Further, in the data set on L6 myotubes (O/N incubation), the “effect on cell viability” value is “no or very little effect on cell viability; also recorded: not cytotoxic”. In addition, the “Akt activation at 50 μM” value in data set [2] is reported as “Neither sulfonanilide 10 nor 11 activated Akt; also recorded: did not enhance Akt activation”. In the data set with L6-GLUT4 myotubes [3], the “increase of glucose uptake with insulin stimulation” value came to 30% and the “increase of glucose uptake without insulin” value is reported as 18–19%. Moreover, in the data set on L6-GLUT4 myotubes [4] (100 nM insulin 15 min), the “increase of GLUT4 on the plasma membrane with insulin stimulation, compared to control cells treated with insulin” value is listed as 10% and the “increase of GLUT4 on the plasma membrane with insulin stimulation, compared to control cells without insulin” value is listed as 26%. In the data set on L6-GLUT4 myotubes [4], the “increase of GLUT4 on the plasma membrane without insulin stimulation” value is 4%.

Take `CN(c1ccc(F)cc1F)S(=O)(=O)c1ccc(F)c(F)c1F` [Compound 11, 2′,4′-Difluoro-N-methyl-2,3,4-trifluorobenzenesulfonanilide]: the IC50 in data set [1] (setting [6]) amounted to 7.07 µM. Besides, the Emax in data set [1] (setting [7]) was found to be 45 ± 0.7%. In the data set on L6 myotubes, the “effect on metabolic activity of the cells (alamarBlue)” value was “slightly enhance the metabolic activity”. Moreover, the “decrease of cell viability” value in the data set with L6 myotubes (300 μM, O/N incubation) turned out to be 24%. In the data set on L6 myotubes (O/N incubation), the “effect on cell viability” value is “no or very little effect on cell viability”. For the same compound, in data set [2], the “Akt activation at 50 μM” value is recorded as “Neither sulfonanilide 10 nor 11 activated Akt; also recorded: did not enhance Akt activation”. Moreover, in the data set on L6-GLUT4 myotubes [3], the “increase of glucose uptake with insulin stimulation” value is listed as 23% and the “increase of glucose uptake without insulin” value is recorded as 18–19%. In addition, in the data set on L6-GLUT4 myotubes [4] (100 nM insulin 15 min), the “increase of GLUT4 on the plasma membrane with insulin stimulation, compared to control cells treated with insulin” value was “no increase” and the “increase of GLUT4 on the plasma membrane with insulin stimulation, compared to control cells without insulin” value worked out at 15%. Moreover, the “increase of GLUT4 on the plasma membrane without insulin stimulation” value in the data set on L6-GLUT4 myotubes [4] stood at 8%.

Consider `CN(c1ccc(F)cc1F)S(=O)(=O)c1cccs1` [Compound 12, 2′,4′-Difluoro-N-methyl-2-thiophenesulfonanilide], for which, in data set [1] (setting [7]), the “max. inhibition of SHIP2 activity” value was “almost inactive” and the Emax turned out to be 5 ± 1.7%.

With `CN(C)C(=N)N=C(N)N` [Metformin, metformin, reference compound], in the data set with L6-GLUT4 myotubes [3], the “increase of glucose uptake with insulin stimulation” value is “did not enhance glucose uptake; also recorded: did not increase glucose uptake” and the “increase of glucose uptake without insulin” value is on record as “did not enhance glucose uptake”. In the data set on L6-GLUT4 myotubes [5], the “concentration necessary to increase glucose uptake into myotubes” value was 2 mM.

Regarding “insulin: insulin (Actrapid, Novo Nordisk) used to stimulate myotubes”, the “increase of GLUT4 on the plasma membrane by insulin stimulation alone” value with L6-GLUT4 myotubes [4] (control myotubes without sulfonanilide, 100 nM insulin 15 min, vs no insulin) is on record as 16%.
